EPA's CvTdb concentration-time database

How the values were obtained:
Rat [1] = experiment: concentration in plasma after dosing; settings: 1.5 h; dosed: Potassium Perfluorobutane Sulfonate; 4 mg/kg; iv; Male; F344
Rat [2] = experiment: concentration in plasma after dosing; settings: 1 h; dosed: Potassium Perfluorobutane Sulfonate; 4 mg/kg; iv; Male; F344
Rat [3] = experiment: concentration in plasma after dosing; settings: dosed: Potassium Perfluorobutane Sulfonate, 4 mg/kg, oral, Male, Harlan Sprague Dawley
Rat [4] = experiment: concentration in kidney after dosing; settings: 1 h; dosed: Potassium Perfluorobutane Sulfonate; 20 mg/kg; oral; Female; Harlan Sprague Dawley
Rat [5] = experiment: concentration in plasma after dosing; settings: 1 h; dosed: Potassium Perfluorobutane Sulfonate; 4 mg/kg; iv; Male; F344; remark: listed apart in the source
Rat [6] = experiment: concentration in kidney after dosing; settings: 12 h; dosed: Potassium Perfluorobutane Sulfonate; 20 mg/kg; oral; Male; Harlan Sprague Dawley
Rat [7] = experiment: concentration in liver after dosing; settings: 1 h; dosed: Potassium Perfluorobutane Sulfonate; 20 mg/kg; oral; Male; Harlan Sprague Dawley
Rat [8] = experiment: concentration in plasma after dosing; settings: 1.5 h; dosed: Potassium Perfluorobutane Sulfonate; 4 mg/kg; oral; Male; Harlan Sprague Dawley
Rat [9] = experiment: concentration in kidney after dosing; settings: 6 h; dosed: Perfluorooctanoic acid; 80 mg/kg; oral; Female; Harlan Sprague Dawley
Rat [10] = experiment: concentration in liver after dosing; settings: 24 h; dosed: Perfluorooctanoic acid; 12 mg/kg; oral; Male; Harlan Sprague Dawley
Rat [11] = experiment: concentration in kidney after dosing; settings: 0.5 h; dosed: Fluorotelomer alcohol 8+2; 80 mg/kg; oral; Female; Harlan Sprague Dawley
Rat [12] = experiment: concentration in kidney after dosing; settings: 3 h; dosed: Perfluorooctanoic acid; 12 mg/kg; oral; Male; Harlan Sprague Dawley
Rat [13] = experiment: concentration in liver after dosing; settings: 528 h; dosed: Perfluorooctanoic acid; 12 mg/kg; oral; Male; Harlan Sprague Dawley
Rat [14] = experiment: concentration in liver after dosing; settings: 3 h; dosed: Perfluorooctanoic acid; 12 mg/kg; oral; Male; Harlan Sprague Dawley
Rat [15] = experiment: concentration in kidney after dosing; settings: 12 h; dosed: Fluorotelomer alcohol 8+2; 24 mg/kg; oral; Male; Harlan Sprague Dawley
Rat [16] = experiment: concentration in brain after dosing; settings: 3 h; dosed: Perfluorooctanoic acid; 12 mg/kg; oral; Male; Harlan Sprague Dawley
Rat [17] = experiment: concentration in plasma after dosing; settings: dosed: 678-39-7, 12 mg/kg, iv, Male, F344
Mouse [18] = experiment: concentration in plasma after dosing; settings: 3 h; dosed: 2-Hydroxy-4-methoxybenzophenone; 50 mg/kg; iv; Male; B6C3F1
Mouse [19] = experiment: concentration in plasma after dosing; settings: 0.25 h; dosed: 2-Hydroxy-4-methoxybenzophenone; 500 mg/kg; oral; Female; B6C3F1
Mouse [20] = experiment: concentration in plasma after dosing; settings: 0.25 h; dosed: 2-Hydroxy-4-methoxybenzophenone; 250 mg/kg; oral; Male; B6C3F1
rat [21] = experiment: concentration in blood after dosing; negative times count back from the end of exposure; settings: dosed: methanol, inhalation, duration: 6 hr, male
Rat [22] = experiment: concentration in plasma after dosing; settings: 2 min; dosed: Nitrite; 40 mg/kg; oral; Female; F344
Rat [23] = experiment: concentration in plasma after dosing; settings: 10 min; dosed: Nitrite; 40 mg/kg; oral; Female; F344
rat [24] = experiment: concentration in serum after dosing; settings: dosed: benzo[a]pyrene, male, Wistar
rat [25] = experiment: concentration in kidney after dosing (ugEq/g tissue); settings: dosed: benzo[a]pyrene, iv, male, Wistar

O=S(=O)([O-])C(F)(F)C(F)(F)C(F)(F)C(F)(F)F.[K+] [Potassium Perfluorobutane Sulfonate]
Settings | concentration in kidney [ng/g] | concentration in liver [ng/g] | concentration in plasma [ng/mL]
Rat [1] | – | – | 2130
Rat [2] | – | – | 17700
Rat [4] | 19300 | – | –
Rat [5] | – | – | 20200
Rat [6] | 3610 | – | –
Rat [7] | – | 110000 | –
Rat [8] | – | – | 13500

Rat [3]
Settings | concentration in plasma [ng/mL]
0.75 h | 14200
12 h | 2550

O=C(O)C(F)(F)C(F)(F)C(F)(F)C(F)(F)C(F)(F)C(F)(F)C(F)(F)F [Perfluorooctanoic acid]
Settings | concentration in brain [ng/g] | concentration in kidney [ng/g] | concentration in liver [ng/g]
Rat [9] | – | 175000 | –
Rat [10] | – | – | 62500
Rat [11] | – | 360 | –
Rat [12] | – | 23700 | –
Rat [13] | – | – | 19500
Rat [14] | – | – | 50700
Rat [15] | – | 581 | –
Rat [16] | 1330 | – | –

Rat [17]
Settings | concentration in plasma [ng/mL]
1 h | 342
6 h | 463

COc1ccc(C(=O)c2ccccc2)c(O)c1 [2-Hydroxy-4-methoxybenzophenone]
Settings | concentration in plasma [ng/mL]
Mouse [18] | 218
Mouse [19] | 1230
Mouse [20] | 289

CO [methanol]
rat [21]
Settings | concentration in blood [ng/mL]
-206 s, 2000 ppm, Fischer-344, during exposure | 80600
-5.613 h, 2000 ppm, Fischer-344, during exposure | 18900
-5.151 h, 2000 ppm, Fischer-344, during exposure | 24300
-3.08 h, 2000 ppm, Fischer-344, during exposure | 59900
0.4288 h, 200 ppm, CDF(F344)/CrlBR | 2410
0.9278 h, 200 ppm, CDF(F344)/CrlBR | 2010
1.006 h, 2000 ppm, Fischer-344 | 83800
1.926 h, 200 ppm, CDF(F344)/CrlBR | 1400
2.976 h, 2000 ppm, Fischer-344 | 53300
2.996 h, 200 ppm, CDF(F344)/CrlBR | 1200
4.511 h, 200 ppm, CDF(F344)/CrlBR | 1510
5.974 h, 2000 ppm, Fischer-344 | 16700
8.995 h, 2000 ppm, Fischer-344 | 702
11.92 h, 2000 ppm, Fischer-344 | 702

rat [21], 200 ppm, CDF(F344)/CrlBR, during exposure
Settings | concentration in blood [ng/mL]
-5.615 h | 1400
-5.115 h | 4520
-3.047 h | 3110
-0.07 h | 3510

O=N[O-] [Nitrite]
Settings | concentration in plasma [ng/mL]
Rat [22] | 1900
Rat [23] | 8500

c1ccc2c(c1)cc1ccc3cccc4ccc2c1c34 [benzo[a]pyrene]
rat [24]
Settings | concentration in serum [ng/mL]
0.3352 h, 2 mg/kg, iv | 2230
0.4717 h, 20 mg/kg, oral | 116
0.752 h, 2 mg/kg, iv | 1020
1.006 h, 2 mg/kg, iv | 635
1.061 h, 20 mg/kg, oral | 486
1.985 h, 20 mg/kg, oral | 989
2.002 h, 2 mg/kg, iv | 85.5
3.99 h, 20 mg/kg, oral | 936
4.005 h, 2 mg/kg, iv | 4.48
5.975 h, 20 mg/kg, oral | 261
5.998 h, 2 mg/kg, iv | 2.43
7.98 h, 20 mg/kg, oral | 86
8 h, 2 mg/kg, iv | 2.04
9.966 h, 20 mg/kg, oral | 16.8
24.02 h, 20 mg/kg, oral | 1.38

concentration in kidney, rat [25]
Settings | 2 mg/kg | 6 mg/kg | 15 mg/kg
0.5 h | 4.64 | 7.09 | 20.1
0.75 h | 4.02 | 7.57 | 16.8
1 h | 2.67 | 6.12 | 15.1
1.5 h | 1.31 | 2.25 | 13.6
2 h | 0.21 | 0.8 | 5.37
3 h | 0.23 | 0.2 | 1.77
4 h | 0.07 | 0.15 | 0.8
5 h | 0.06 | 0.09 | 0.36
5 min | 7 | 12.4 | 30.8
6 h | 0.08 | 0.11 | 0.35
8 h | 0.08 | 0.09 | 0.25
10 min | 7.09 | 15.9 | 25.2
20 min | 7.68 | 11.7 | 22.5
24 h | – | – | 0.05
32 h | – | – | 0.01
